Measured values from patent US7612080B2, “GTPase inhibitors and use thereof for controlling platelet hyperactivity” (Cincinnati Children's Hospital Medical Center, priority 2004, dated 2009).

Tests used:
[1] = molecular target: T1, RhoA binding to PDZ-RhoGEF (Homo sapiens, UniProt P61586); assay: Complex formation assay, RhoA with PDZ-RhoGEF
T1 construct: made in house; host or cells: Cos-7 cells (PDZ-RhoGEF, used as lysate)
Method: Trio and Tiam-1 co-precipitate with GST-Rac1, but not GST or GST-Cdc42.
After an incubation at 4° C. for 30 minutes, the beads associated (His)6-TrioN were detected by anti-His Western blotting. The blots were quantified by densitometry analysis. The results are representative of three measurements. […] The association of Rac1 with Tiam1 was examined by anti-His blot after anti-myc immunoprecipitation. […] The RhoA associated PDZ-RhoGEF was probed with anti-AU antibody after affinity precipitation by glutathione agarose beads.

[2] = molecular target: PDZ-RhoGEF-stimulated mantGDP/GTP exchange of RhoA (Homo sapiens, UniProt P61586); assay: In vitro guanine nucleotide exchange assay (mant-GDP), RhoA/PDZ-RhoGEF; format: biochemical; details: 200 μM compound
PDZ-RhoGEF-stimulated mantGDP/GTP exchange of RhoA, sequence (P61586 whole entry): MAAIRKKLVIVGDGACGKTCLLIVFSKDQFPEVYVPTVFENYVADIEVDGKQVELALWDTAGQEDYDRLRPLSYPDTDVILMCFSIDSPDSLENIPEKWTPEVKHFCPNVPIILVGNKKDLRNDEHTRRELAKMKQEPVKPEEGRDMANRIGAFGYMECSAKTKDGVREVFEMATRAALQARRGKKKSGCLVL

endogenous RhoA = molecular target: T2, endogenous RhoA (Mus musculus, UniProt Q9QUI0); assay: Endogenous Rho GTPase activity assay (GST-Rhotekin pull-down), RhoA in NIH 3T3 cells; format: cell-based; details: 10% serum
T2 construct: endogenous in cells; host or cells: NIH 3T3 fibroblasts
T2 sequence (Q9QUI0 whole entry): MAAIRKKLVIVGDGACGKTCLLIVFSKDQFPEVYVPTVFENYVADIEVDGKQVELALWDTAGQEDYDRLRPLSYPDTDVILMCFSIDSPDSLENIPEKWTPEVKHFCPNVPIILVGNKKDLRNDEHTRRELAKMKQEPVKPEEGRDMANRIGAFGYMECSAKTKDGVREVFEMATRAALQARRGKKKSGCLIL

NIH 3T3 cells = assay: Cell growth assay of wild type, L61Rac1- or GEF-expressing NIH 3T3 cells; format: cell-based; details: 100 μM compound
Source text: The cells were split in triplicate in 6-well plates at a density of 5×10^4 cells per well. […] The foci numbers of the respective cells were quantified 14 days after transfection. […] The number and the morphology of the colonies were examined under a microscope.
Due to their ability to directly activate Rho GTPases, Db1 family GEFs are potent stimulators of cell proliferation.

platelets = assay: Platelet adhesion, secretion and aggregation elicited by agonists; format: cell-based, mouse and human; details: induced by ADP, PLC, U46619, collagen, thrombin, or phorbol ester
Source text: In the studies disclosed hereinbelow, a dual approach of genetic targeting of Rac GTPases in mice and specific pharmacological inhibition of Rac GTPases in both mouse and human platelets was used to establish the central role of Rac GTPases in platelet function.
Treatment of mice with Compound NCI23766, Formula IV. […] This process was described above in the Experimental section of this document.

PC-3 cells [3] = assay: Matrigel cell invasion assay; details: 25 μM compound, 24 hrs
Method: Cell invasion assays. The cell invasion assays are performed using 6.4-mm Biocoat Matrigel invasion chambers with 8.0-micron pore size PET membrane (Becton-Dickinson) according to the manufactory instructions. Briefly, 5×10^4 cells are resuspended in 0.5 ml of serum free culture medium and added to the upper chamber. 10% fetal bovine serum in the culture medium is used as a chemo-attractant in the lower chamber. After the cells are incubated for overnight, the number of cell passed through the Matrigel is counted.
Cells invaded through Matrigel matrix were visualized with Giemasa staining.

PC-3 cells [4] = assay: Anchorage independent growth in soft agar
PC-3 cells [5] = assay: PC-3 cell proliferation (CellTiter 96 AQueous assay); details: 5% calf serum, indicated concentrations
Method: Cell growth assay. […] The growth rate of the prostate PC-3 cells is measured by the CellTiter 96 AQueous assay (Promega). 1,500 cells/well in 200 μl of 5% FBS medium are plated in 96-well plates and are grown under normal conditions. Cultures are assayed in 0, 1, 2, 3, 4, or 5 days by the addition of 20 μl of the combined MTS/PMS solution followed by incubation for one hour at 37° C. Absorbency is measured at a wavelength of 490 nm on an automated microplate reader.
The cells were split in triplicate in 96-wells at 1.5×10^3 cells per well. Cell numbers were assayed by using CellTiter 96 AQueous cell proliferation assay kit in different days.

Swiss3T3 cells = assay: Immunofluorescence of PDGF-stimulated lamellipodia formation; details: 100 μM compound, 10 nM PDGF
Method: Immunofluorescence. […] The cellular actin is stained with TRITC-labeled phalloidin (Sigma) at 10 μg/ml in PBS for 40 min at room temperature. The actin and cell morphological changes are visualized by fluorescence microscopy.
The cells were fixed and stained with Rhodamine-labeled phalloidin.

T1 sequence (P61586 whole entry): as the sequence (P61586 whole entry) above

**Q.** Which results are given for CCN(CC)CCCC(C)Nc1nc(C)cc(Nc2ccc3nc(C)cc(N)c3c2)n1 (racemic) [Compound NCI23766, N6-(2-((4-(diethylamino)-1-methylbutyl)amino)-6-methyl-4-pyrimidinyl)-2-methyl-4,6-quinolinediamine]?
**A.** interference with RhoA binding to PDZ-RhoGEF [1]: does not interfere; effect on PDZ-RhoGEF-stimulated mantGDP/GTP exchange of RhoA [2]: little impact; level of RhoA-GTP in cells (endogenous RhoA): slightly increased level; growth of wild type NIH 3T3 cells (NIH 3T3 cells; 5% serum): slow the growth; growth rate of Rac1L61 expressing cells (NIH 3T3 cells; 5% serum): no effect; cell growth induced by the Rac specific GEF Trio (NIH 3T3 cells; NIH 3T3, 5% serum): capable of inhibiting; platelet adhesion (platelets): worked remarkably in inhibiting; platelet aggregation (platelets): worked remarkably in inhibiting; platelet secretion (platelets): worked remarkably in inhibiting; PC-3 cell invasion (PC-3 cells [3]): significantly inhibits; size of colonies of treated cells versus untreated (PC-3 cells [4]): much smaller; colony-forming activities remaining (PC-3 cells [4]; 25 μM compound): Approximately 10%; colony-forming activities remaining (PC-3 cells [4]; 50 μM compound): ~1%; proliferation rates of PC-3 cells (PC-3 cells [5]): inhibited by Compound NCI23766 in a dose dependent manner; PDGF induction of lamellipodia at the cell edges (Swiss3T3 cells; 5 min): only marginally effective; PDGF induction of lamellipodia at the cell edges (Swiss3T3 cells; 10 min): completely ineffective
